According to patent US12570612B2, “Substituted nitrogen heterocyclic compound and anesthetic effect thereof” (priority 2019, dated 2026):
Like-named read-outs stand apart in the source and are kept apart here.

Columns and labels:
adrenal cortex function = test: Adrenocortical function in rats: corticosterone after dexamethasone and ACTH, Group C compounds; details: for Give ACTH 30min later(S2) corticosterone concentration: drug at 2ED50, 30 min after ACTH 25 ug/kg; for Baseline(S1) corticosterone concentration: two hours after dexamethasone 0.5 mg/kg, before drug
Procedure: Instruments and equipment: multi-function ion meter (METTLER TOLEDO, models: SevenMulti), pipetting gun (Eppendorf, specifications: 1000 ul, 200 ul, 100 ul, 10 ul), electronic balance (model: ME215S, manufacturers: Sartorius, Germany), the timer. Experimental Method: Adult male Sprague-Dawley rats (250-300 g) were selected for the experiment (n=8), all the experiment were started in the morning. Place indwelling needles in tail vein of rats and inject dexamethasone (0.5 mg/kg). The first time of blood collection (S1) is in two hours later, and give dexamethasone (0.2 mg/kg). […] All the drugs were administered in a volume of 0.6 ml and at a rate of 0.1 ml/s. 15 min later, exogenous ACTH (25 ug/kg) was injected. Another blood sample was collected after 30 min(S2). The blood samples were left standing at room temperature for 30-60 min, followed by centrifugation at 3500 rpm for 10 min. The supernatant was taken and centrifuged again at 15000 rpm for 5 min before being frozen and stored in a −20° C. refrigerator.
Evaluation indexes: The concentration of the corticosterone in the supernatant of rats before and after given drugs.

SD rats [1] = details: for After the infusion is stopped: Righting reflex recovery time / Recovery time after stopping infusion: after 1 hour continuous infusion at 2 times the MIR; for After the infusion is stopped: Righting reflex recovery time / Recovery time after stopping infusion / Sedation onset time: SD rats; for Sedation onset time: continuous tail vein infusion at 2 times the MIR
Procedure: (§1) Experimental Methods: Adult male SD rats with body weight ranging from 250 g to 350 g were selected for continuous infusion test.
(§2) Evaluation indexes: the time from the beginning of continuous infusion to the […] of sedation in rats; the time from the cessation of infusion to the restoration of the forepaw turning reflex after 1 hour of continuous infusion; the time from the cessation of infusion to the complete restoration of rats after 1 hour of continuous infusion.

Sprague-Dawley rats [2] = assay type: in vivo; details: tail vein
Sprague-Dawley rats [3] = test: animal or person; assay type: in vivo; details: rats; for ED50: LORR, up and down method, tail vein, class symbols
Description: Evaluating indicator: The end point of anesthesia: LORR was used as the end point of anesthesia; General anesthesia effect: the disappearance of forepaw righting reflex in rats lasting for 30 seconds is taken as the index of general anesthesia effect; Anesthesia recovery index: the recovery of rat forepaw righting reflex was used as the index of anesthesia recovery.

Sprague-Dawley rats [4] = test: Pharmacological effect and adverse reactions under the equivalent dose (2ED50), Group C compounds; assay type: in vivo; details: for Righting reflex duration / Sedation duration / Onset time: 2ED50, tail vein, rats, n=8; for Onset time: unit s; for Adverse reaction: Convulsions / Adverse reaction: Cough, broken-winded / Adverse reaction: Euphoria / Adverse reaction: Red urine / Adverse reaction: Slower breathing, Tetany convulsion / Adverse reaction: Systemic stiffness, Convulsions, Opisthotonus / Adverse reaction: Tongue stretching / Adverse reaction: Tremor / Adverse reaction: the four limbs rigidity: equivalent dose (2ED50), number of rats of n = 8
Description: (§3) Evaluation index: onset time: from the completion of drug injection to the disappearance of forepaw righting reflex in rats; Duration of anesthesia: the time from the disappearance of rat forepaw righting reflex to the recovery of rat forepaw righting reflex; Recovery time of anesthesia: the time from the […] to complete recovery;

Sprague-Dawley rats [5] = assay type: in vivo; details: tail vein; remark: listed apart in the source
Sprague-Dawley rats [6] = test: animal or person; assay type: in vivo; details: rats; for ED50: Rattus norvegicus, LORR, up and down method, tail vein, class symbols, read-out: ED50
Description: Evaluating indicator: The end point of anesthesia: the disappearance of forepaw righting reflex (lorr) was used as the end point of anesthesia; General anesthesia effect: the disappearance of forepaw righting reflex in rats lasting for 30 seconds is taken as the index of general anesthesia effect; Anesthesia recovery index: the recovery of rat forepaw righting reflex was used as the index of anesthesia recovery.

Sprague-Dawley rats [7] = test: Pharmacological effect and adverse reactions under the equivalent dose (2ED50), Group D compounds; assay type: in vivo; details: for Righting reflex duration / Sedation duration / Onset time: 2ED50, tail vein, rats, n=8; for Adverse reaction: Convulsions / Adverse reaction: Cough, broken-winded / Adverse reaction: Euphoria / Adverse reaction: Four limbs rigidity / Adverse reaction: Red urine / Adverse reaction: Slower breathing, Tetany convulsion / Adverse reaction: Systemic stiffness, Convulsions, Opisthotonus / Adverse reaction: Tongue stretching / Adverse reaction: Tremor: equivalent dose (2 × ED50), number of rats of n = 8
Description: as §3

SD rats [8] = details: for After the infusion is stopped: Righting reflex recovery time / Recovery time after stopping infusion: after 1 hour continuous infusion at 2 times the MIR; for After the infusion is stopped: Righting reflex recovery time / Recovery time after stopping infusion / Sedation onset time: SD rats; for Sedation onset time: continuous tail vein infusion at 2 times the MIR; remark: listed apart in the source
Procedure: as §1, §2

[9] = continuous infusion 2 x MIR 1 hour, rats affected/rats

## C#CCOCC(=O)c1cc(F)nn1[C@H](C)c1ccccc1 [Compound C15]
Adrenal cortex function
  Give ACTH 30min later(S2) corticosterone concentration: 267.99 ± 33.20
  Baseline(S1) corticosterone concentration: 145.90 ± 54.33
SD rats [1]
  After the infusion is stopped: Righting reflex recovery time: 16 to 18 min
  Recovery time after stopping infusion: 30 to 36 min
  Sedation onset time: <5 min
SD rats [1]; [9]
  Types and incidence of adverse reactions: Red urine: 6/6
  Types and incidence of adverse reactions: Tremor: 1/6
Sprague-Dawley rats [2]
  Minimal lethal dose: >16.8 mg/kg
Sprague-Dawley rats [3]
  ED50: ++++ (++++ indicates that the measured ED50 is in the range of 2.00-10.00 mg/kg (excluding 2.00 mg/kg, including 6.00 mg/kg))
  Approximate therapeutic index: >3.4
Sprague-Dawley rats [4]
  Righting reflex duration: 2.13 ± 0.59 min
  Sedation duration: 5.3 ± 0.92 min
  Onset time: <30 s
  Adverse reaction: Convulsions: 0
  Adverse reaction: Cough, broken-winded: 0
  Adverse reaction: Euphoria: 0
  Adverse reaction: Red urine: 8
  Adverse reaction: Slower breathing, Tetany convulsion: 0
  Adverse reaction: Systemic stiffness, Convulsions, Opisthotonus: 0
  Adverse reaction: Tongue stretching: 0
  Adverse reaction: Tremor: 1
  Adverse reaction: the four limbs rigidity: 0

## CC#CCOCC(=O)c1cncn1[C@H](C)c1ccccc1 [Compound C27]
Adrenal cortex function
  Give ACTH 30min later(S2) corticosterone concentration: 253.11 ± 34.56
  Baseline(S1) corticosterone concentration: 180.33 ± 46.70
SD rats [1]
  After the infusion is stopped: Righting reflex recovery time: 12 to 16 min
  Recovery time after stopping infusion: 15 to 20 min
  Sedation onset time: <5 min
SD rats [1]; [9]
  Types and incidence of adverse reactions: Red urine: 6/6
  Types and incidence of adverse reactions: Tremor: 5/6
Sprague-Dawley rats [2]
  Minimal lethal dose: >13.6 mg/kg
Sprague-Dawley rats [3]
  ED50: ++ (++ means that the measured ED50 is in the range of 0.50-1.00 mg/kg (excluding 0.50 mg/kg, including 1.00 mg/kg))
  Approximate therapeutic index: >16.6
Sprague-Dawley rats [4]
  Righting reflex duration: 1.48 ± 0.14 min
  Sedation duration: 4.39 ± 0.94 min
  Onset time: <30 s
  Adverse reaction: Convulsions: 0
  Adverse reaction: Cough, broken-winded: 0
  Adverse reaction: Euphoria: 0
  Adverse reaction: Red urine: 8
  Adverse reaction: Slower breathing, Tetany convulsion: 0
  Adverse reaction: Systemic stiffness, Convulsions, Opisthotonus: 1
  Adverse reaction: Tongue stretching: 2
  Adverse reaction: Tremor: 0
  Adverse reaction: the four limbs rigidity: 0

## CCOCC(=O)c1ccnn1[C@H](C)c1ccccc1 [Compound C2]
Adrenal cortex function
  Give ACTH 30min later(S2) corticosterone concentration: 242.12 ± 46.22
  Baseline(S1) corticosterone concentration: 163.22 ± 35.11
SD rats [1]
  After the infusion is stopped: Righting reflex recovery time: 10 to 15 min
  Recovery time after stopping infusion: 20 to 30 min
  Sedation onset time: <5 min
SD rats [1]; [9]
  Types and incidence of adverse reactions: Red urine: 6/6
  Types and incidence of adverse reactions: Tongue stretching: Tongue stretching(4/6)
  Types and incidence of adverse reactions: Tremor: 3/6
Sprague-Dawley rats [2]
  Minimal lethal dose: >12.4 mg/kg
Sprague-Dawley rats [3]
  ED50: ++++ (++++ indicates that the measured ED50 is in the range of 2.00-10.00 mg/kg (excluding 2.00 mg/kg, including 6.00 mg/kg))
  Approximate therapeutic index: >2.5
Sprague-Dawley rats [4]
  Righting reflex duration: 1.78 ± 0.53 min
  Sedation duration: 5.38 ± 0.78 min
  Onset time: <30 s
  Adverse reaction: Convulsions: 0
  Adverse reaction: Cough, broken-winded: 0
  Adverse reaction: Euphoria: 0
  Adverse reaction: Red urine: 8
  Adverse reaction: Slower breathing, Tetany convulsion: 0
  Adverse reaction: Systemic stiffness, Convulsions, Opisthotonus: 0
  Adverse reaction: Tongue stretching: 2
  Adverse reaction: Tremor: 0
  Adverse reaction: the four limbs rigidity: 0

## COC(OC)(OC)C(=O)c1ccnn1[C@H](C)c1ccccc1 [Compound D1]
Sprague-Dawley rats [5]
  Minimal lethal dose: >11.2 mg/kg
Sprague-Dawley rats [6]
  ED50: 0.5 to 1 mg/kg
  Approximate therapeutic index: >8.4
Sprague-Dawley rats [7]
  Righting reflex duration: 1.18 ± 0.43 min
  Sedation duration: 7.96 ± 2.14 min
  Adverse reaction: Convulsions: 0
  Adverse reaction: Cough, broken-winded: 0
  Adverse reaction: Euphoria: 0
  Adverse reaction: Four limbs rigidity: 0
  Adverse reaction: Red urine: 8
  Adverse reaction: Slower breathing, Tetany convulsion: 0
  Adverse reaction: Systemic stiffness, Convulsions, Opisthotonus: 0
  Adverse reaction: Tongue stretching: 1
  Adverse reaction: Tremor: 0
Sprague-Dawley rats [7]; unit min
  Onset time: <1 min
SD rats [8]
  After the infusion is stopped: Righting reflex recovery time: 18 to 24 min
  Recovery time after stopping infusion: 35 to 45 min
  Sedation onset time: <5 min
SD rats [8]; [9]
  Types and incidence of adverse reactions: Red urine: 6/6
  Types and incidence of adverse reactions: Tongue stretching: Tongue stretching(2/6)
  Types and incidence of adverse reactions: Tremor: 2/6

## COC(OC)(OC)C(=O)c1c(F)cnn1[C@H](C)c1ccccc1 [Compound D29]
Sprague-Dawley rats [5]
  Minimal lethal dose: >3.6 mg/kg
Sprague-Dawley rats [6]
  ED50: 0.04 to 0.5 mg/kg
  Approximate therapeutic index: >4.1
Sprague-Dawley rats [7]
  Righting reflex duration: 1.24 ± 0.06 min
  Sedation duration: 2.26 ± 0.59 min
  Adverse reaction: Convulsions: 0
  Adverse reaction: Cough, broken-winded: 0
  Adverse reaction: Euphoria: 0
  Adverse reaction: Four limbs rigidity: 3
  Adverse reaction: Red urine: 8
  Adverse reaction: Slower breathing, Tetany convulsion: 0
  Adverse reaction: Systemic stiffness, Convulsions, Opisthotonus: 0
  Adverse reaction: Tongue stretching: 0
  Adverse reaction: Tremor: 4
Sprague-Dawley rats [7]; unit s
  Onset time: <0.5 min
SD rats [8]
  After the infusion is stopped: Righting reflex recovery time: 12 to 20 min
  Recovery time after stopping infusion: 20 to 25 min
  Sedation onset time: <5 min
SD rats [8]; [9]
  Types and incidence of adverse reactions: Red urine: Red urine(6/6), Tongue
  Types and incidence of adverse reactions: Tongue stretching: stretching(4/6)
